We go through 18 compounds from patent publication US9453000B2, “Polycyclic compound” (EISAI R&D MANAGEMENT CO., LTD., priority 2007, dated 2016).

By IC50 is commonly meant the concentration that gives 50% inhibition.

In this experiment the test system is Aβ42 production in rat primary neuronal culture. In words: Quantification of Aβ peptide in culture of neurons from rat fetus brain (Aβ ELISA). Particulars: Primary cortical neuron, 72 h, rat primary cortical neurons (embryonic day 18 Wistar), three days after addition of the compound, Aβx-42 ELISA of medium, read-out: Aβ42 production reducing effect IC50. The experiment is classed as cell-based. On the procedure: Quantification of Aβ Peptide in Culture of Neurons from Rat Fetus Brain
(1) Rat Primary Neuronal Culture
Primary neuronal cultures were prepared from the cerebral cortex of embryonic day 18 Wistar rats (Charles River Japan, Yokohama, Japan). Specifically, the embryos were aseptically removed from pregnant rats under ether anesthesia. The brain was isolated from the embryo and immersed in an ice-cold L-15 medium (Invitrogen Corp. Cat #11415-064, Carlsbad, Calif., USA, or SIGMA L1518, for example). The cerebral cortex was collected from the isolated brain under a stereoscopic microscope. The cerebral cortex fragments collected were enzymatically treated in an enzyme solution containing 0.25% trypsin (Invitrogen Corp. Cat #15050-065, Carlsbad, Calif., USA) and 0.01% DNase (Sigma D5025, St. Louis, Mo., USA) at 37° C. for 30 minutes to disperse the cells. Here, the enzymatic reaction was stopped by adding inactivated horse serum to the solution. The enzymatically treated solution was centrifuged at 1,500 rpm for five minutes to remove the supernatant. 5 to 10 ml of a medium was added to the resulting cell mass. Neurobasal medium (Invitrogen Corp. Cat #21103-049, Carlsbad, Calif., USA) supplemented with 2% B27 supplement (Invitrogen Corp. Cat #17504-044, Carlsbad, Calif., USA), 25 μM 2-mercaptoethanol (2-ME, WAKO Cat #139-06861, Osaka, Japan), 0.5 mM L-glutamine (Invitrogen Corp. Cat #25030-081, Carlsbad, Calif., USA), and Antibiotics-Antimycotics (Invitrogen Corp. Cat #15240-062, Carlsbad, Calif., USA) was used as the medium (Neurobasal/B27/2-ME). However, the above Neurobasal medium not supplemented with 2-ME (Neurobasal/B27) was used for the assay. The cells were redispersed by mild pipetting of the cell mass to which the medium was added. The cell dispersion was filtered through a 40-μm nylon mesh (Cell Strainer, Cat #35-2340, Becton Dickinson Labware, Franklin Lakes, N.J., USA) to remove the remaining cell mass, and thus a neuronal cell suspension was obtained. The neuronal cell suspension was diluted with the medium and then plated in a volume of 100 μl/well at an initial cell density of 5×10^5 cells/cm^2 in a 96-well polystyrene culture plate pre-coated with poly-L or D-lysine (Falcon Cat #35-3075, Becton Dickinson Labware, Franklin Lakes, N.J., USA coated with poly-L-lysine using the method shown below, or BIOCOAT™ cell environments Poly-D-lysine cell ware 96-well plate, Cat #35-6461, Becton Dickinson Labware, Franklin Lakes, N.J., USA). Poly-L-lysine coating was carried out as follows. 100 μg/ml of a poly-L-lysine (SIGMA P2636, St. Louis, Mo., USA) solution was aseptically prepared with a 0.15 M borate buffer (pH 8.5). 100 μl/well of the solution was added to the 96-well polystyrene culture plate and incubated at room temperature for one or more hours or at 4° C. overnight or longer. The coated 96-well polystyrene culture plate was washed with sterile water four or more times, and then dried or rinsed with, for example, sterile PBS or medium, and used for cell plating. The plated cells were cultured in the culture plate at 37° C. in 5% CO2-95% air for one day. Then, the total amount of the medium was replaced with a fresh Neurobasal™/B27/2-ME medium, and then the cells were cultured for further three days.
The drug was added to the culture plate on Day 4 of culture as follows. The total amount of the medium was removed from the wells, and 180 μl/well of Neurobasal medium not containing 2-ME and containing 2% B-27 (Neurobasal/B27) was added thereto. A solution of the test compound in dimethyl sulfoxide (hereinafter abbreviated as DMSO) was diluted with Neurobasal/B27 at 10-fold of the final concentration. 20 μl/well of the dilution was added to and sufficiently mixed with the medium. The final DMSO concentration was 1% or less. Only DMSO was added to the control group.
The cells were cultured for three days after addition of the compound, and the total amount of the medium was collected. […]
Background: In an ELISA, binding on a coated surface is turned into a signal by an enzyme label.
In the case of `COc1cc(/C=C/c2nc3n(n2)CCCC3(O)c2ccc(C(C)C)cc2)ccc1-n1cnc(C)c1` (single isomer, unassigned) [Example 55, (−)-8-(4-isopropylphenyl)-2-{(E)-2-[3-methoxy-4-(4-methyl-1H-imidazol-1-yl)phenyl]vinyl}-5,6,7,8-tetrahydro[1,2,4]triazolo[1,5-a]pyridin-8-ol], the 50% inhibitory concentration (IC50) was determined as 28 nM.

Regarding `COc1cc(/C=C/c2nc3n(n2)CCC[C@]3(O)c2ccccc2F)ccc1-n1cnc(C)c1` (single isomer, unassigned) [Example 59, (−)-8-(2-fluorophenyl)-2-{(E)-2-[3-methoxy-4-(4-methyl-1H-imidazol-1-yl)phenyl]vinyl}-5,6,7,8-tetrahydro-[1,2,4]triazolo[1,5-a]pyridin-8-ol], the IC50 is 45 nM. In the case of `COc1cc(/C=C/c2nc3n(n2)CCCC3C2CCCN2Cc2ccccc2)ccc1-n1cnc(C)c1` (single isomer, unassigned) [Example 133, 8-(1-benzylpyrrolidin-2-yl)-2-{(E)-2-[3-methoxy-4-(4-methyl-1H-imidazol-1-yl)phenyl]vinyl}-5,6,7,8-tetrahydro[1,2,4]triazolo[1,5-a]pyridine], the IC50 was determined as 65 nM.

Regarding `COc1nc(/C=C/c2nc3n(n2)CCCC3c2cc(F)c(F)c(F)c2)ccc1-n1cnc(C)c1` (single isomer, unassigned) [Example 169, (−)-2-{(E)-2-[6-methoxy-5-(4-methyl-1H-imidazol-1-yl)pyridin-2-yl]vinyl}-8-(3,4,5-trifluorophenyl)-5,6,7,8-tetrahydro-[1,2,4]triazolo[1,5-a]pyridine], the IC50 came out at 22 nM. For `COc1nc(/C=C/c2nc3n(n2)CCC[C@H]3c2ccc(F)c(F)c2)ccc1-n1cnc(C)c1` (single isomer, unassigned) [Example 171, (−)-8-(3,4-difluorophenyl)-2-{(E)-2-[6-methoxy-5-(4-methyl-1H-imidazol-1-yl)pyridin-2-yl]vinyl}-5,6,7,8-tetrahydro-[1,2,4]triazolo[1,5-a]pyridine], the IC50 was found to be 17 nM. The same measure for `COc1nc(/C=C/c2nc3n(n2)CCC[C@H]3c2ccc(F)cc2)ccc1-n1cnc(C)c1` (single isomer, unassigned) [Example 173, (−)-8-(4-fluorophenyl)-2-{(E)-2-[6-methoxy-5-(4-methyl-1H-imidazol-1-yl)pyridin-2-yl]vinyl}-5,6,7,8-tetrahydro-[1,2,4]triazolo[1,5-a]pyridine]: 37 nM; for `COc1nc(/C=C/c2nc3n(n2)CCCC3c2cccc(F)c2)ccc1-n1cnc(C)c1` (single isomer, unassigned) [Example 189, (−)-8-(3-fluorophenyl)-2-{(E)-2-[6-methoxy-5-(4-methyl-1H-imidazol-1-yl)pyridin-2-yl]vinyl}-5,6,7,8-tetrahydro[1,2,4]triazolo[1,5-a]pyridine]: 43 nM.

As to `COc1nc(/C=C/c2nc3n(n2)CCCC3c2cccc3ccccc23)ccc1-n1cnc(C)c1` (single isomer, unassigned) [Example 199, (+)-2-{(E)-2-[6-methoxy-5-(4-methyl-1H-imidazol-1-yl)pyridin-2-yl]vinyl}-8-(naphthalen-1-yl)-5,6,7,8-tetrahydro-[1,2,4]triazolo[1,5-a]pyridine], the IC50 amounted to 23 nM.

`COc1cc(/C=C/c2nc3n(n2)CCC[C@H]3c2ccc(F)cc2)cnc1-n1cnc(C)c1` (single isomer, unassigned) [Example 212, (−)-8-(4-fluorophenyl)-2-{(E)-2-[5-methoxy-6-(4-methyl-1H-imidazol-1-yl)pyridin-3-yl]vinyl}-5,6,7,8-tetrahydro-[1,2,4]triazolo[1,5-a]pyridine]: the IC50 came out at 100 nM.

With `COc1cc(/C=C/c2nc3n(n2)CCC[C@H]3c2ccc(F)c(F)c2)cnc1-n1cnc(C)c1` (single isomer, unassigned) [Example 218, (−)-8-(3,4-difluorophenyl)-2-{(E)-2-[5-methoxy-6-(4-methyl-1H-imidazol-1-yl)pyridin-3-yl]vinyl}-5,6,7,8-tetrahydro-[1,2,4]triazolo[1,5-a]pyridine], the concentration for half-maximal inhibition (IC50) is 69 nM. In the case of `COc1cc(/C=C/c2nc3n(n2)CCCC3c2ccccc2C(F)(F)F)ccc1-n1cnc(C)c1` (single isomer, unassigned) [Example 311, (−)-2-{(E)-2-[3-methoxy-4-(4-methyl-1H-imidazol-1-yl)phenyl]vinyl}-8-(2-trifluoromethylphenyl)-5,6,7,8-tetrahydro-[1,2,4]triazolo[1,5-a]pyridine], the concentration for half-maximal inhibition (IC50) was determined as 11 nM.

For `COc1cc(/C=C/c2nc3n(n2)CC[C@H]3c2ccccc2C(F)(F)F)ccc1-n1cnc(C)c1` (single isomer, unassigned) [Example 317, (−)-2-{(E)-2-[3-methoxy-4-(4-methyl-1H-imidazol-1-yl)phenyl]vinyl}-7-(2-trifluoromethylphenyl)-6,7-dihydro-5H-pyrrolo[1,2-b][1,2,4]triazole], the IC50 worked out at 25 nM. Turning to `COc1nc(/C=C/c2nc3n(n2)CCC[C@@H]3c2ccccc2C)ccc1-n1cnc(C)c1` (single isomer, unassigned) [Example 319, (−)-2-{(E)-2-[6-methoxy-5-(4-methyl-1H-imidazol-1-yl)pyridin-2-yl]vinyl}-8-(o-tolyl)-5,6,7,8-tetrahydro[1,2,4]triazolo[1,5-a]pyridine], the IC50 is 15 nM. As for `COc1nc(/C=C/c2nc3n(n2)CCC[C@@H]3c2cccc(C(F)(F)F)c2)ccc1-n1cnc(C)c1` (single isomer, unassigned) [Example 321, (−)-2-{(E)-2-[6-methoxy-5-(4-methyl-1H-imidazol-1-yl)pyridin-2-yl]vinyl}-8-(3-trifluoromethylphenyl)-5,6,7,8-tetrahydro[1,2,4]triazolo[1,5-a]pyridine], the IC50 was determined as 23 nM.

Regarding `COc1nc(/C=C/c2nc3n(n2)CCCC3c2cc(F)ccc2C(F)(F)F)ccc1-n1cnc(C)c1` (single isomer, unassigned) [Example 329, (−)-8-(5-fluoro-2-trifluoromethylphenyl)-2-{(E)-2-[6-methoxy-5-(4-methyl-1H-imidazol-1-yl)pyridin-2-yl]vinyl}-5,6,7,8-tetrahydro-[1,2,4]triazolo[1,5-a]pyridine], the IC50 was 17 nM. As for `COc1nc(/C=C/c2nc3n(n2)CCCC3c2c(F)cccc2C(F)(F)F)ccc1-n1cnc(C)c1` (single isomer, unassigned) [Example 331, (−)-8-(6-fluoro-2-trifluoromethylphenyl)-2-{(E)-2-[6-methoxy-5-(4-methyl-1H-imidazol-1-yl)pyridin-2-yl]vinyl}-5,6,7,8-tetrahydro-[1,2,4]triazolo[1,5-a]pyridine], the IC50 is 22 nM. In the case of `COc1nc(/C=C/c2nc3n(n2)CCC[C@@H]3c2cccc(F)c2C)ccc1-n1cnc(C)c1` (single isomer, unassigned) [Example 333, (−)-8-(3-fluoro-2-methylphenyl)-2-{(E)-2-[6-methoxy-5-(4-methyl-1H-imidazol-1-yl)pyridin-2-yl]vinyl}-5,6,7,8-tetrahydro-[1,2,4]triazolo[1,5-a]pyridine], the IC50 was found to be 10 nM. In the case of `Cc1cn(-c2ccc(/C=C/c3nc4n(n3)CCC[C@@H]4c3ccccc3C(F)(F)F)nc2OCC(F)F)cn1` (single isomer, unassigned) [Example 354, (−)-2-{(E)-2-[5-(4-methyl-1H-imidazol-1-yl)-6-(2,2-difluoroethoxy)pyridin-2-yl]vinyl}-8-(2-trifluoromethylphenyl)-5,6,7,8-tetrahydro-[1,2,4]triazolo[1,5-a]pyridine], the IC50 came out at 37 nM.
